The record followed here is patent publication US20190375778A1, “ADENOSINE DERIVATIVES FOR USE IN THE TREATMENT OF CANCER” (NuCana plc, priority 2016, published 2019).

What is called IC50 is the concentration at which inhibition is half-maximal. For orientation: EC50 means the concentration giving half of the maximal effect.

Like-named read-outs stand apart in the source and are kept apart here.

Common to all, as to type: cell-based
One assay deals with Jurkat. Kind of assay: CellTiterGlo viability assay, Jurkat. The following applies: Homo sapiens, read-out: IC50 Jurkat. Here is the method: (§1) In vitro viability assay were performed to assess the effects of compounds on cell viability in selected cell lines over ˜72 hrs using the CellTiterGlo (CTG, Promega-G7573) assay. The tests were performed in duplicates with treatment of compounds at 9 points, 3.16 folds titration in 96 well plates over ˜72 hrs. The compound starting concentrations were 198 μM. Cell viability assay using CellTiterGlo in 96-well plate were performed. Compound treatment 72 hrs, standard growth conditions, duplicates. Compounds were dissolved to 40 mM with thawed […]. Compounds were serially diluted at 3.16 fold in thawed DMSO, and warmed to 37° C. before being dissolved in media (2 μl+200 μl). After compounds were dissolved in media, media containing compounds were warmed to 37° C. in incubator and then compounds in media were added to cell plates (50 μl+50 μl) in duplicates. The compounds' final concentrations were from […] to 19.9 nM. All compound solubilities were checked and recorded again, then the plates were transferred to CO2 tissue culture incubator immediately and incubated for 3 days. DMSO final concentration is 0.5%.

The test system of a further assay is Murine leukemia L1210. The experiment in a line: Cell proliferation (Coulter count) assay, L1210. The following applies: Mus musculus, 48 h, read-out: absolute IC50, L1210. An outline of the steps:
(§2)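 Cells grown in DMEM with 10% FBS. HeLa seeded at 10 000 cells/well, compound added after 24 h, counted day 5; L1210 and CEM seeded at 60 000 cells/well with compound, counted after 48 h and 72 h respectively. IC50 is concentration halving proliferation by Coulter count.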

The next assay concerns MCF7. Kind of assay: CellTiterGlo viability assay, MCF7. The following applies: for IC50: read-out: IC50 MCF7. Here is the method: as §1
(In general: In ATP-based viability assays light output follows the ATP content of the culture.)

For a further assay, the system named is RL. The experiment in a line: CellTiterGlo viability assay, RL. The following applies: for IC50: read-out: IC50 RL. Here is the method:
as §1

Another assay concerns CCRFCEM. Kind of assay: CellTiterGlo viability assay, CCRFCEM. The following applies: for IC50: read-out: IC50 CCRFCEM. Here is the method:
as §1

A further assay concerns HS445. Kind of assay: CellTiterGlo viability assay, HS445. The following applies: for IC50: read-out: IC50 HS445. Here is the method:
as §1

A further assay relates to HL-60. Kind of assay: CellTiterGlo viability assay, HL-60. The following applies: for IC50: read-out: IC50 HL-60. Here is the method: as §1
A further assay concerns Z138. The experiment in a line: CellTiterGlo viability assay, Z138. The following applies: for IC50: read-out: IC50 Z138. Here is the method:
as §1

In another assay the test system is K562. Kind of assay: CellTiterGlo viability assay, K562. The following applies: for IC50: read-out: IC50 K562. Here is the method: as §1
Another assay deals with HEL92.1.7. The experiment in a line: CellTiterGlo viability assay, HEL92.1.7. The following applies: for IC50: read-out: IC50 HEL92.1.7. Here is the method:
as §1

A further assay has as its system NCI-H929. The experiment in a line: CellTiterGlo viability assay, NCI-H929. The following applies: Homo sapiens, read-out: IC50 NCI-H929. Here is the method: as §1
The subject of another assay is HepG2. The experiment in a line: CellTiterGlo viability assay, HepG2. The following applies: for IC50: read-out: IC50 HepG2. Here is the method: as §1
The subject of assay [1] is human cervix carcinoma HeLa cells. The experiment in a line: Cell proliferation (Coulter count) assay, HeLa. The following applies: 120 h, cell count on day 5, read-out: absolute IC50, HeLa. An outline of the steps:
as §2

The subject of the next assay is A549. Kind of assay: MTT cytotoxicity assay, A549. The following applies: Homo sapiens, 96 h compound exposure, read-out: absolute IC50, A549. An excerpt:
Lovo: cell line derived from a metastatic site in a patient with colon cancer MCF7: human oestrogen sensitive mammary epithelial cell line PC3: human prostate cancer cell line A549: cancerous lung tissue derived cells L1210: lymphoblast cell line derived from a mouse with lymphocytic leukaemia FM3A: mammary carcinoma murine cells CEM: human T-lymphoblasts, derived from the blood of a patient with acute lymphoblastic leukaemia HeLa: epithelial cells from a patient with cervical adenocarcinoma
Anti-tumour evaluation in MCF7, LoVo, A549 and PC3 cell lines was performed by MTT assay. Compounds were prepared as 0.1-100 mM stock solutions dissolved in DMSO and stored at −20° C. Cells were seeded into 96-well microtitre plates at a density of 5×10^3 cells per well and allowed 24 hours to adhere. Decimal compound dilutions were prepared in medium immediately prior to each assay (final concentration 0.1-100 μM). Experimental medium was DMEM+10% FCS (PC3 and Lovo) or RPMI+10% heat inactivated FCS (A549 and MCF7). Following 96 h compound exposure at 37° C., 5% CO2, MTT reagent (Sigma Aldrich) was added to each well (final concentration 0.5 mg/ml). Incubation at 37° C. for 4 h allowed reduction of MTT by viable cells to an insoluble formazan product. MTT was removed and formazan solubilised by addition of 10% Triton X-100 in PBS. Absorbance was read on a Tecan Sunrise spectrophotometer at 540 nm as a measure of cell viability; thus inhibition relative to control was determined (IC50).
(In general: Formazan colour is commonly taken as a measure of viable cells.)

Where [2] appears, read: Homo sapiens, MCF7, CellTiterGlo, 72 hrs.
[3] abbreviates: Homo sapiens, RL, CellTiterGlo, 72 hrs.
Where [4] appears, read: Homo sapiens, CCRF-CEM, CellTiterGlo, 72 hrs.
The mark [5] stands for this setting: Homo sapiens, HL-60, CellTiterGlo, 72 hrs.
Setting [6] is: Homo sapiens, Z-138, CellTiterGlo, 72 hrs.
Where [7] appears, read: Homo sapiens, K562, CellTiterGlo, 72 hrs.
[8] abbreviates: Homo sapiens, HEL 92.1.7, CellTiterGlo, 72 hrs.
Setting [9] is: Homo sapiens, HepG2, CellTiterGlo, 72 hrs.

`C[C@H](NP(=O)(OC[C@H]1O[C@@H](n2c(Cl)nc3c(N)ncnc32)C(O)C1O)Oc1cccc2ccccc12)C(=O)OCc1ccccc1` (stereo partly drawn) [Compound D, (2S)-Benzyl 2-(((((2R,3S,4R,5R)-5-(6-amino-8-chloro-9H-purin-9-yl)-3,4-dihydroxy-tetrahydrofuran-2-yl)methoxynaphthalene-1-yloxy)phosphoryl)amino)propanoate]: the IC50 with Jurkat (72 h) was 0.1 to 5 µM; with Murine leukemia L1210 it was 5 to 15 µM; in the assay with MCF7 (Homo sapiens, MCF7, 72 h), 0.1 to 5 µM; in the assay on RL (Homo sapiens, RL, 72 h), 5 to 15 µM; with CCRFCEM (Homo sapiens, CCRF-CEM, 72 h), 0.1 to 5 µM; with HS445 (Hs 445, 72 h), 5 to 15 µM. The IC50 in the assay with HL-60 (Homo sapiens, HL-60, 72 h) fell in the range of 5 to 15 µM; in the assay with Z138 (Homo sapiens, Z-138, 72 h), 0.1 to 5 µM; in the assay on K562 (Homo sapiens, K562, 72 h) it was 0.1 to 5 µM; in the assay on HEL92.1.7 (Homo sapiens, HEL 92.1.7, 72 h), 0.1 to 5 µM; in the assay on NCI-H929 (NCI-H929, 72 h), 0.1 to 5 µM; with HepG2 (Homo sapiens, HepG2, 72 h) it was 0.1 to 5 µM. The concentration for half-maximal inhibition (IC50) in assay [1] is 0.1 to 5 µM.

For `Nc1ncnc2c1nc(Cl)n2[C@@H]1O[C@H](COP(=O)(NCC(=O)OCc2ccccc2)NCC(=O)OCc2ccccc2)C(O)C1O` (stereo partly shown) [Compound AC, 8-Chloroadenosine 5′-O-bis(benzyloxy-glycin-N-yl) phosphate], the IC50 with Jurkat (CellTiterGlo, 72 hrs) lay in the range of 0.1 to 5 µM; in the assay with Murine leukemia L1210, 0.1 to 5 µM; in the assay with MCF7 (setting [2]), 0.1 to 5 µM; in the assay on RL (setting [3]), 0.1 to 5 µM; in the assay on CCRFCEM (setting [4]) it was 0.1 to 5 µM; in the assay on HS445 (Hs 445, CellTiterGlo, 72 hrs), 5 to 15 µM. For the same compound, the IC50 with HL-60 (setting [5]) is 0.1 to 5 µM; with Z138 (setting [6]) it was 0.1 to 5 µM; in the assay on K562 (setting [7]), 0.1 to 5 µM; with HEL92.1.7 (setting [8]), 0.1 to 5 µM; in the assay on NCI-H929 (NCI-H929, CellTiterGlo, 72 hrs) it was 0.1 to 5 µM; in the assay with HepG2 (setting [9]), 0.1 to 5 µM. Further, the IC50 in [1] was in the range of 0.1 to 5 µM.

With `Nc1ncnc2c1nc(Cl)n2[C@@H]1O[C@H](CO)[C@@H](O)[C@H]1O` [8-chloroadenosine, 8-Chloroadenosine, reference compound], the IC50 fell in the range of 0.1 to 5 µM in the assay with Jurkat (CellTiterGlo, 72 hrs); 0.1 to 5 µM with Murine leukemia L1210; 0.1 to 5 µM in the assay with MCF7 (setting [2]); 5 to 15 µM in the assay on RL (setting [3]); 0.1 to 5 µM with CCRFCEM (setting [4]); 0.1 to 5 µM with A549. For the same compound, the IC50 in the assay with HS445 (Hs 445, CellTiterGlo, 72 hrs) is 5 to 15 µM; in the assay on HL-60 (setting [5]) it was 0.1 to 5 µM; in the assay with Z138 (setting [6]), 0.1 to 5 µM; in the assay on K562 (setting [7]) it was 0.1 to 5 µM; in the assay on HEL92.1.7 (setting [8]), 0.1 to 5 µM; with NCI-H929 (NCI-H929, CellTiterGlo, 72 hrs) it was 0.1 to 5 µM. The IC50 (with HepG2 (setting [9]); in assay [1]) was 0.1 to 5 µM throughout. Besides, the “Top in. % MCF7” value in the assay with MCF7 worked out at 79.6%. In addition, the EC50 with MCF7 (Homo sapiens, MCF7, read-out: Ab EC50 (μM) MCF7) was determined as 1.33 µM; in the assay with RL (Homo sapiens, RL, read-out: Ab EC50 (μM) RL), 4.39 µM; in the assay on CCRFCEM (Homo sapiens, CCRF-CEM, read-out: Ab EC50 (μM) CCRF-CEM) it was 2.27 µM; in the assay on HS445 (Hs 445, read-out: Ab EC50 (μM) HS445) it was 4.5 µM; in the assay on HL-60 (Homo sapiens, HL-60, read-out: Ab EC50 (μM) HL-60), 10.2 µM; with Z138 (Homo sapiens, Z-138, read-out: Ab EC50 (μM) Z-138), 1.44 µM. Moreover, the concentration for a half-maximal effect (EC50) is 11.8 µM with K562 (Homo sapiens, K562, read-out: Ab EC50 (μM) K562); 2.2 µM with HEL92.1.7 (Homo sapiens, HEL 92.1.7, read-out: Ab EC50 (μM) HEL92.1.7); 1.13 µM in the assay on HepG2 (Homo sapiens, HepG2, read-out: Ab EC50 (μM) HepG2). The “Top in. % RL” value in the assay on RL came out at 87.3%. Further, the “Top in. % CCRF-CEM” value in the assay on CCRFCEM is listed as 82.3%. In addition, the “Top in. % HS445” value in the assay on HS445 is on record as 78.1%. For the same compound, the “Top in. % HL-60” value in the assay on HL-60 is 97.1%. For the same compound, in the assay with Z138, the “Top in. % Z-138” value came to 88.7%. In addition, the “Top in. % K562” value in the assay on K562 is reported as 82.0%. Also, the “Top in. % HEL92.1.7” value with HEL92.1.7 is on record as 96.4%. Further, the “Top in. % HepG2” value in the assay on HepG2 is 78.5%.
